Patent US8507518B2, “Method of treating mantle cell lymphoma” (Mayo Foundation for Medical Education and Research, priority 2003, dated 2013)

Columns and labels:
mantle cell lymphoma [1] = assay: Phase II study of low dose single-agent CCI-779, 25 mg/week, in relapsed mantle cell lymphoma; type: in vivo, human
Method: Eleven patients (4 refractory, […], ranging from 55 to 85 years old) with MCL were enrolled in a Phase II study of CCI-779 and were treated as described in Example 1 above, with the exception that they received a 10-fold lower dose than in Example 1, i.e., 25 mg/week. Eight patients (73%) were in stage 4, two (18%) in stage 3, and 4 (36%) had ≧2 extranodal sites. Patients had received a median of 3 prior therapies (range, 1-7) and 3 were refractory to their last treatment.

mantle cell lymphoma [2] = assay: Phase II trial of single-agent CCI-779, 250 mg IV weekly, in relapsed mantle cell lymphoma (NCCTG); type: in vivo, human
Method: The ability of a CCI-779 to treat or inhibit mantle cell lymphoma was evaluated in a clinical trial. Briefly, 18 patients (mean age 72 years, range 38-89 years) were treated with an intravenous dose of 250 mg CCI-779 on days 1, 8, 15, and 22 of a 4 week treatment cycle, for up to a maximum of 12 cycles. Of these patients, 15 were stage IV, 2 were stage III, and 1 was stage II. […] Only 3 patients progressed before the end of the cycle. Based on the results obtained in this clinical trial, CCI-779 is useful in the treatment or inhibition of mantle cell lymphoma.
This study was conducted through the North Central Cancer Treatment Group (NCCTG) cooperative group. Patients were eligible for this trial if they had previously received therapy and had relapsed. There was no limit on the number of prior therapies. All histologies were confirmed to be mantle cell lymphoma by central pathology review. Cyclin-D1 positivity was required by immunohistochemistry or t(11;14) detected by FISH. Patients were required to have measurable disease with a lymph node or tumor mass≧2 cm or malignant lymphocytosis with an ALC≧5,000; a life expectancy of ≧3 months, ECOG performance status of 0, 1, or 2; absolute neutrophil count (ANC)≧1,000; platelets≧75,000; hemoglobin≧8 g/dL; serum creatinine≦2× the upper limit of normal (UNL); serum bilirubin≦1.5 UNL; serum cholesterol≦350 mg/dL; and triglycerides≦400 mg/dL. Patients could not have known central nervous system involvement or HIV infection.
(§1) Patients were treated with a flat dose of 250 mg of CCI-779 diluted in 250 mL of normal saline and delivered IV over 30 minutes. Patients were pretreated with diphenhydramine 25-50 mg IV. Treatment was weekly and a cycle was considered 4 weeks. A complete blood count was performed each week and a full dose delivered if the platelet count was ≧50,000 and the ANC≧1000 and there was no grade 3 non-hematologic toxicity (using the NCI Common Toxicity Criteria version 2). […] Patients were not to receive prophylactic white blood cell growth factors to maintain dosing but could receive them at time of neutropenia at physician discretion. Erythropoietin could be used.
Patients were restaged after 1, 3, and 6 cycles and the response assessed as per the international workshop criteria. [B. D. Cheson, et al., “Report of an International Workshop to Standardize Response Criteria for Non-Hodgkin's Lymphomas”, Journal of Clinical Oncology, Vol 17, Issue 4 (April), 1999: 1244]. Patients who progressed anytime or those patients with stable disease after 6 cycles went off study.
A single stage phase II study with an interim analysis was conducted to assess the proportion of previously treated mantle cell lymphoma patients who achieved a PR or better after treatment with CCI-779. This trial was designed to test the null hypothesis that the true response rate was at most 0.05. The smallest response rate that would indicate that this regimen was worth further study in this patient population was 0.20. The design was generated based on the parameters and assumptions of a two-stage Simon MinMax™ design, but where accrual was not suspended for the interim analysis. This study design required a maximum of 32 evaluable patients, where the interim analysis was performed after 18 patients had been accrued and followed for at least 24 weeks. An additional 3 patients were accrued to this cohort (for a maximum of 35 patients overall) to account for the possibilities of ineligibility, withdrawal from study prior to drug administration, or major violations. However, only the first 32 evaluable patients were used to evaluate the decision criteria for this design. At least one response in the first 18 evaluable patients needed to be observed in the interim analysis to continue accrual. At the time of the final analyses, a total of four or more responses were required to indicate that this regimen warrants further evaluation in this patient population. […]

[3] = Safety and tolerability in the phase II trial of CCI-779 250 mg IV weekly; type: in vivo, human
Method: as §1
All 35 patients were included in the analysis of safety and tolerability. During the 30 minute infusion, CCI-779 was well-tolerated and there were no significant toxicities that occurred. Thrombocytopenia was the cause of most dose reductions and was rapidly reversible with drug delays of typically only one week. Only three patients required platelet transfusions, and four patients required red blood cell transfusions. Thirteen patients experienced grade 3 infections without concomitant neutropenia; two patients had febrile neutropenia and three had infection (grade 3) with neutropenia. […] The conclusion was that this was idiopathic Bell's palsy and indeed it eventually resolved. A possible relationship to CCI-779 could not be established nor eliminated. The patient who experienced blurred vision was diagnosed with retinitis due to reactivation of cytomegalovirus (CMV) infection.

[4] = Stability of CCI-779 in parenteral cosolvent formulation with antioxidant/chelating agent; type: physicochemical; conditions: citric acid at a concentration of less than 0.01% w/v
From the text: In this embodiment, the stability of a CCI-779 in parenterally acceptable alcoholic cosolvents is enhanced by addition of an antioxidant to the formulation. Acceptable antioxidants include, but are not limited to, citric acid, d,l-α-tocopherol, BHA, BHT, monothioglycerol, ascorbic acid, propyl gallate, and mixtures thereof. Generally, the parenteral formulations useful in this embodiment of the invention will contain an antioxidant component(s) in a concentration ranging from 0.001% to 1% w/v, or 0.01% to 0.5% w/v, of the cosolvent concentrate, although lower or higher concentrations may be desired. Of the antioxidants, d,l-α-tocopherol is particularly desirable and is used at a concentration of 0.01 to 0.1% w/v with a preferred concentration of 0.075% w/v of the cosolvent concentrate.
Examples of such chelating agents include, e.g., citric acid, acetic acid, and ascorbic acid (which may function as both a classic antioxidant and a chelating agent in the present formulations). Other chelating agents include such materials as are capable of binding metal ions in solution, such as ethylene diamine tetra acetic acid (EDTA), its salts, or amino acids such as glycine are capable of enhancing the stability of a CCI-779. […] Optimal concentrations for the selected antioxidant(s) can be readily determined by one of skill in the art, based upon the information provided herein.

[5] = overall, median follow-up 11 months

SMILES: CO[C@H]1C[C@@H]2CC[C@@H](C)[C@@](O)(O2)C(=O)C(=O)N2CCCC[C@H]2C(=O)O[C@H]([C@H](C)C[C@@H]2CC[C@@H](OC(=O)C(C)(CO)CO)[C@H](OC)C2)CC(=O)[C@H](C)/C=C(\C)[C@@H](O)[C@@H](OC)C(=O)[C@H](C)C[C@H](C)/C=C/C=C/C=C/1C [CCI-779, rapamycin 42-ester with 3-hydroxy-2-(hydroxymethyl)-2-methylpropionic acid]
- overall response rate (mantle cell lymphoma [1]; 7/11 patients): 64%
- number of PRs (mantle cell lymphoma [1]; 11 patients): 7
- overall response rate (ORR) (mantle cell lymphoma [2]; 13/34 patients, 250 mg IV weekly, 90% CI 24%-54%): 38%
- median duration of response (mantle cell lymphoma [2]; 13 responders, 95% CI 4-13.2 months): 5.7 months
- overall response rate (mantle cell lymphoma [2]; 18 patients, 250 mg IV days 1, 8, 15, 22 of 4 week cycle, 95% CI 24%-68%): 44.4%
- patients progressed before the end of the cycle (mantle cell lymphoma [2]; 18 patients, 250 mg IV weekly): 3 patients
- patients with complete response (CR) (mantle cell lymphoma [2]; 18 patients, 250 mg IV weekly): One
- patients with partial response (PR) (mantle cell lymphoma [2]; 18 patients, 250 mg IV weekly): 7 patients
- number of CR (mantle cell lymphoma [2]; 34 patients, 250 mg IV weekly): 1
- number of PRs (mantle cell lymphoma [2]; 34 patients, 250 mg IV weekly): 12
- median time to progression (mantle cell lymphoma [2]; 95% CI 3.8-9.4 months): 6.2 months
- median overall survival (mantle cell lymphoma [2]; 95% CI 6.7 months to not yet reached): 12 months
- responses after 4 months evaluation (mantle cell lymphoma [2]; of 13 responders): 1
- responses after 8 months evaluation (mantle cell lymphoma [2]; of 13 responders): 1
- responses after the first cycle evaluation (mantle cell lymphoma [2]; of 13 responders): Eight
- responses documented after 3 cycles (mantle cell lymphoma [2]; of 13 responders): 3
- patients who have died (mantle cell lymphoma [2]; [5]): 22 patients
- patients with disease progression (mantle cell lymphoma [2]; [5]): 29 patients
- median time to response (mantle cell lymphoma [2]; range 1-8): 1 month
- anti-tumor activity in relapsed MCL (mantle cell lymphoma [2]; single agent): substantial anti-tumor activity
- adverse event, all grades: AST elevations ([3]; 35 patients): 43%
- adverse event, all grades: abnormal taste ([3]; 35 patients): 43%
- adverse event, all grades: anemia ([3]; 35 patients): 66%
- adverse event, all grades: fatigue ([3]; 35 patients): 66%
- adverse event, all grades: hypercholesterolemia ([3]; 35 patients): 40%
- adverse event, all grades: hyperglycemia ([3]; 35 patients): 91%
- adverse event, all grades: increased triglycerides ([3]; 35 patients): 77%
- adverse event, all grades: infection without concomitant neutropenia ([3]; 35 patients): 63%
- adverse event, all grades: loss of appetite ([3]; 35 patients): 40%
- adverse event, all grades: mucositis ([3]; 35 patients): 71%
- adverse event, all grades: nausea ([3]; 35 patients): 49%
- adverse event, all grades: neutropenia ([3]; 35 patients): 77%
- adverse event, all grades: rash ([3]; 35 patients): 51%
- adverse event, all grades: sensory neurophathy ([3]; 35 patients): 37%
- adverse event, all grades: thrombocytopenia ([3]; 35 patients): 100%
- adverse event, all grades: weight loss ([3]; 35 patients): 46%
- grade 5 events (deaths on treatment) ([3]; 35 patients): No grade 5 events
- patients requiring platelet transfusions ([3]; 35 patients): three
- patients requiring red blood cell transfusions ([3]; 35 patients): four
- patients with febrile neutropenia ([3]; 35 patients): two
- patients with grade 3 infections without concomitant neutropenia ([3]; 35 patients): Thirteen
- patients with infection (grade 3) with neutropenia ([3]; 35 patients): three
- tolerability during the 30 minute infusion ([3]; 35 patients): well-tolerated
- median time to discontinuation of treatment ([3]; 95% CI 3-6.2 months): 3.7 months
- patients who went off treatment due to adverse reactions ([3]; of 28 patients who discontinued treatment): 7
- dose reductions necessary ([3]; starting dose 250 mg weekly): all but 4 patients
- effect of citric acid on stability of CCI-779 [4]: enhanced the stability
